Results as given in ChEMBL document CHEMBL3632554, “Ligand binding studies, preliminary structure-activity relationship and detailed mechanistic characterization of 1-phenyl-6,6-dimethyl-1,3,5-triazine-2,4-diamine derivatives as inhibitors of Escherichia coli dihydrofolate reductase” (Eur J Med Chem, 2015).
Calls of active or inactive are those of the source. The calls are words filed in the database; no cut-off is given here.

Target: T1, Dihydrofolate reductase (Escherichia coli) (UniProt P0ABQ4)
T1 sequence (whole entry): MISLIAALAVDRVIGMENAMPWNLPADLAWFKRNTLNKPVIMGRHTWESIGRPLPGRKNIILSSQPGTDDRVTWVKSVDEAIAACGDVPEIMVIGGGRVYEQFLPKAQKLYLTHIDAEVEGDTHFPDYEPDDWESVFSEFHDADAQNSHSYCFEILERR
Description: Inhibition of Escherichia coli DHFR assessed as NADP formation by quadratic Morrison plot analysis

| Structure (SMILES) | Ki(app) |
| --- | --- |
| CC1(C)N=C(N)N=C(N)N1c1ccc(CCCCc2ccc(Cl)cc2Cl)cc1 | inactive |
| CN(C)c1ccc(N2C(N)=NC(N)=NC2(C)C)cc1 | inactive |
